Data from patent US12528826B2, “[1,4]oxazepino[2,3-c]quinolinone derivatives as BCL6 inhibitors” (Cancer Research Technology Limited, priority 2019, dated 2026).

Target: T1, Trx-6×His-BCL6 (human BCL6 BTB domain covering amino-acid sequence 5-129) (Homo sapiens, UniProt P41182)
T1 construct: made in house
Test: HTRF assay (BCL6 / BCOR peptide)
Format: binding
Conditions: 1 nM Trx-6×His-BCL6, 300 nM BCOR-AF633 peptide, 2 hours incubation at room temperature; read-out: HTRF avg pIC50 (converted)
Experimental: After 2 hours incubation at room temperature the plate was read on a Pherastar FSX (BMG Labtech) plate reader equipped with 337 nm laser excitation filter, a first emission filter at 620 nm and a second emission filter at 665 nm. The % inhibition at each concentration was calculated by normalising FRET ratio to the appropriate high (DMSO with all reagents) and low (DMSO without BCL6) controls.

SMILES	IC50
CC1CCN(c2ncc(Cl)c(Nc3ccc4c(c3)c3c(c(=O)n4C)OCC(F)(F)[C@H](C4CC4)N3)n2)CC1C (mixture of isomers) [Example 12x07, (2S)-10-((5-chloro-2-(3,4-dimethylpiperidin-1-yl)pyrimidin-4-yl)amino)-2-cyclopropyl-3,3-difluoro-7-methyl-1,2,3,4-tetrahydro-[1,4]oxazepino[2,3-c]quinolin-6(7H)-one]	46.8 nM
Cn1c(=O)c2c(c3cc(Nc4nc(N5CCC(F)(F)C(C(=O)N6CCC6)C5)ncc4Cl)ccc31)N[C@@H](C1CC1)C(F)(F)CO2 (mixture of isomers) [Example 12x18, (2S)-10-((2-(3-(azetidine-1-carbonyl)-4,4-difluoropiperidin-1-yl)-5-chloropyrimidin-4-yl)amino)-2-cyclopropyl-3,3-difluoro-7-methyl-1,2,3,4-tetrahydro-[1,4]oxazepino[2,3-c]quinolin-6(7H)-one]	5.5 nM
Cn1c(=O)c2c(c3cc(Nc4nc(N5CCC(F)(F)C(C(=O)N6CC(F)(F)C6)C5)ncc4Cl)ccc31)N[C@@H](C1CC1)C(F)(F)CO2 (mixture of isomers) [Example 12x19, (2S)-10-((5-chloro-2-(3-(3,3-difluoroazetidine-1-carbonyl)-4,4-difluoropiperidin-1-yl)pyrimidin-4-yl)amino)-2-cyclopropyl-3,3-difluoro-7-methyl-1,2,3,4-tetrahydro-[1,4]oxazepino[2,3-c]quinolin-6(7H)-one]	5.89 nM
Cn1c(=O)c2c(c3cc(Nc4nc(N5CCC(F)(F)C(CC(=O)N6CC(F)(F)C6)C5)ncc4Cl)ccc31)N[C@@H](C1CC1)C(F)(F)CO2 (mixture of isomers) [Example 12x20, (2S)-10-((5-chloro-2-(3-(2-(3,3-difluoroazetidin-1-yl)-2-oxoethyl)-4,4-difluoropiperidin-1-yl)pyrimidin-4-yl)amino)-2-cyclopropyl-3,3-difluoro-7-methyl-1,2,3,4-tetrahydro-[1,4]oxazepino[2,3-c]quinolin-6(7H)-one]	3.72 nM
Cn1c(=O)c2c(c3cc(Nc4nc(N5CCC(F)(F)C(CC(=O)N6CCC6)C5)ncc4Cl)ccc31)N[C@@H](C1CC1)C(F)(F)CO2 (mixture of isomers) [Example 12x21, (2S)-10-((2-(3-(2-(azetidin-1-yl)-2-oxoethyl)-4,4-difluoropiperidin-1-yl)-5-chloropyrimidin-4-yl)amino)-2-cyclopropyl-3,3-difluoro-7-methyl-1,2,3,4-tetrahydro-[1,4]oxazepino[2,3-c]quinolin-6(7H)-one]	3.55 nM
CC1CCN1c1ncc(Cl)c(Nc2ccc3c(c2)c2c(c(=O)n3C)OCC(F)(F)[C@H](C3CC3)N2)n1 (mixture of isomers) [Example 12x36, (2S)-10-((5-chloro-2-(2-methylazetidin-1-yl)pyrimidin-4-yl)amino)-2-cyclopropyl-3,3-difluoro-7-methyl-1,2,3,4-tetrahydro-[1,4]oxazepino[2,3-c]quinolin-6(7H)-one]	7.76 nM
CC1CCCN(c2ncc(Cl)c(Nc3ccc4c(c3)c3c(c(=O)n4C)OCC(F)(F)[C@H](C4CC4)N3)n2)C1CO (mixture of isomers) [Example 12x46, (2S)-10-((5-chloro-2-(2-(hydroxymethyl)-3-methylpiperidin-1-yl)pyrimidin-4-yl)amino)-2-cyclopropyl-3,3-difluoro-7-methyl-1,2,3,4-tetrahydro-[1,4]oxazepino[2,3-c]quinolin-6(7H)-one]	11.2 nM
Cn1c(=O)c2c(c3cc(Nc4nc(N5CCC(F)(F)CC5CO)ncc4Cl)ccc31)N[C@@H](C1CC1)C(F)(F)CO2 (mixture of isomers) [Example 12x50, (2S)-10-((5-chloro-2-(4,4-difluoro-2-(hydroxymethyl)piperidin-1-yl)pyrimidin-4-yl)amino)-2-cyclopropyl-3,3-difluoro-7-methyl-1,2,3,4-tetrahydro-[1,4]oxazepino[2,3-c]quinolin-6(7H)-one]	7.08 nM

Other lines, results leading:

IC50	SMILES
3.47 nM	CCNC(=O)[C@@H]1C[C@H](C)CN(c2ncc(Cl)c(Nc3ccc4c(c3)c3c(c(=O)n4C)OCC(F)(F)[C@H](C4CC4)N3)n2)C1 (racemic) [Example 9c, (3R,5S)-1-(5-chloro-4-(((S)-2-cyclopropyl-3,3-difluoro-7-methyl-6-oxo-1,2,3,4,6,7-hexahydro-[1,4]oxazepino[2,3-c]quinolin-10-yl)amino)pyrimidin-2-yl)-N-ethyl-5-methylpiperidine-3-carboxamide; (3S,5R)-1-(5-chloro-4-(((S)-2-cyclopropyl-3,3-difluoro-7-methyl-6-oxo-1,2,3,4,6,7-hexahydro-[1,4]oxazepino[2,3-c]quinolin-10-yl)amino)pyrimidin-2-yl)-N-ethyl-5-methylpiperidine-3-carboxamide]
4.17 nM	C[C@H]1C[C@@H](CO)CN(c2ncc(Cl)c(Nc3ccc4c(c3)c3c(c(=O)n4C)OCC(F)(F)[C@H](C4CC4)N3)n2)C1 (racemic) [Example 9d, (S)-10-((5-chloro-2-((3R,5S)-3-(hydroxymethyl)-5-methylpiperidin-1-yl)pyrimidin-4-yl)amino)-2-cyclopropyl-3,3-difluoro-7-methyl-1,2,3,4-tetrahydro-[1,4]oxazepino[2,3-c]quinolin-6(7H)-one; (S)-10-((5-chloro-2-((3S,5R)-3-(hydroxymethyl)-5-methylpiperidin-1-yl)pyrimidin-4-yl)amino)-2-cyclopropyl-3,3-difluoro-7-methyl-1,2,3,4-tetrahydro-[1,4]oxazepino[2,3-c]quinolin-6(7H)-one]
3.72 nM	Cn1c(=O)c2c(c3cc(Nc4nc(N5CCC(F)(F)C(O)C5)ncc4Cl)ccc31)N[C@@H](C1CC1)C(F)(F)CO2 (mixture of isomers) [Example 9e, (S)-10-((5-chloro-2-((R)-4,4-difluoro-3-hydroxypiperidin-1-yl)pyrimidin-4-yl)amino)-2-cyclopropyl-3,3-difluoro-7-methyl-1,2,3,4-tetrahydro-[1,4]oxazepino[2,3-c]quinolin-6(7H)-one; (S)-10-((5-chloro-2-((S)-4,4-difluoro-3-hydroxypiperidin-1-yl)pyrimidin-4-yl)amino)-2-cyclopropyl-3,3-difluoro-7-methyl-1,2,3,4-tetrahydro-[1,4]oxazepino[2,3-c]quinolin-6(7H)-one]
10.2 nM	Cn1c(=O)c2c(c3cc(Nc4nc(N5CCCC(CF)C5)ncc4Cl)ccc31)N[C@@H](C1CC1)C(F)(F)CO2 (mixture of isomers) [Example 9f, (S)-10-((5-chloro-2-((R)-3-(fluoromethyl)piperidin-1-yl)pyrimidin-4-yl)amino)-2-cyclopropyl-3,3-difluoro-7-methyl-1,2,3,4-tetrahydro-[1,4]oxazepino[2,3-c]quinolin-6(7H)-one; (S)-10-((5-chloro-2-((S)-3-(fluoromethyl)piperidin-1-yl)pyrimidin-4-yl)amino)-2-cyclopropyl-3,3-difluoro-7-methyl-1,2,3,4-tetrahydro-[1,4]oxazepino[2,3-c]quinolin-6(7H)-one]
2.29 nM	Cn1c(=O)c2c(c3cc(Nc4nc(N5CCC(F)(F)C(CC(N)=O)C5)ncc4Cl)ccc31)N[C@@H](C1CC1)C(F)(F)CO2 (mixture of isomers) [Example 9g]
4.17 nM	CCNC(=O)C1CN(c2ncc(Cl)c(Nc3ccc4c(c3)c3c(c(=O)n4C)OCC(F)(F)[C@H](C4CC4)N3)n2)CCC1(F)F (mixture of isomers) [Example 9j, (R)-1-(5-chloro-4-(((S)-2-cyclopropyl-3,3-difluoro-7-methyl-6-oxo-1,2,3,4,6,7-hexahydro-[1,4]oxazepino[2,3-c]quinolin-10-yl)amino)pyrimidin-2-yl)-N-ethyl-4,4-difluoropiperidine-3-carboxamide; (S)-1-(5-chloro-4-(((S)-2-cyclopropyl-3,3-difluoro-7-methyl-6-oxo-1,2,3,4,6,7-hexahydro-[1,4]oxazepino[2,3-c]quinolin-10-yl)amino)pyrimidin-2-yl)-N-ethyl-4,4-difluoropiperidine-3-carboxamide]
4.27 nM	CCN(CC1CN(c2ncc(Cl)c(Nc3ccc4c(c3)c3c(c(=O)n4C)OCC(F)(F)[C@H](C4CC4)N3)n2)CCC1(F)F)C(C)=O (mixture of isomers) [Example 9k]
11.7 nM	Cn1c(=O)c2c(c3cc(Nc4nc(N5CC6CC5CC6(F)F)ncc4Cl)ccc31)N[C@@H](C1CC1)C(F)(F)CO2 (mixture of isomers) [Example 9l, (S)-10-((5-chloro-2-((1R,4R)-5,5-difluoro-2-azabicyclo[2.2.1]heptan-2-yl)pyrimidin-4-yl)amino)-2-cyclopropyl-3,3-difluoro-7-methyl-1,2,3,4-tetrahydro-[1,4]oxazepino[2,3-c]quinolin-6(7H)-one; (S)-10-((5-chloro-2-((1S,4S)-5,5-difluoro-2-azabicyclo[2.2.1]heptan-2-yl)pyrimidin-4-yl)amino)-2-cyclopropyl-3,3-difluoro-7-methyl-1,2,3,4-tetrahydro-[1,4]oxazepino[2,3-c]quinolin-6(7H)-one]
3.63 nM	CCN1CC2CCC(C1=O)N2c1ncc(Cl)c(Nc2ccc3c(c2)c2c(c(=O)n3C)OCC(F)(F)[C@H](C3CC3)N2)n1 (mixture of isomers) [Example 9r, (S)-10-((5-chloro-2-((1S,5R)-3-ethyl-2-oxo-3,8-diazabicyclo[3.2.1]octan-8-yl)pyrimidin-4-yl)amino)-2-cyclopropyl-3,3-difluoro-7-methyl-1,2,3,4-tetrahydro-[1,4]oxazepino[2,3-c]quinolin-6(7H)-one; (S)-10-((5-chloro-2-((1R,5S)-3-ethyl-2-oxo-3,8-diazabicyclo[3.2.1]octan-8-yl)pyrimidin-4-yl)amino)-2-cyclopropyl-3,3-difluoro-7-methyl-1,2,3,4-tetrahydro-[1,4]oxazepino[2,3-c]quinolin-6(7H)-one]
